B1: Amuc_1409: SEQ ID NO: 15, functional fragment obtained by eliminating the leader sequence from SEQ ID NO: 14; protein derived from Akkermansia muciniphila (protein)
chain: IPESSVPAAAVSSIKGAYPNAGPIEWDSEMHGMERIYEAEFRINGFQFDVKIAPDGKIVRIKEEIAASSLPEAVRASVLKRYPGCRIKEAEKITEGELVRYKVEVADSRDDYDVLIAPDGNILHVDR
modifications: Amuc_1409_fragment
notes: protein derived from Akkermansia muciniphila

Columns and labels:
[1] = tested on: ConA-induced acute hepatitis model; test: ConA-induced acute hepatitis model; assay type: in vivo, C57BL/6J mice; details: vs PBS buffer group; for ALT / AST: plasma, 9 hours after ConA
Method: An acute hepatitis model was induced by dissolving ConA (concanavalin A) in PBS buffer (phosphate buffered saline) at 1.5 mg/mL and injecting the solution into 8-week-old specific pathogen free (SPF) male C57BL/6J mice through the tail vein in proportion to the mouse body weight based on 100 μL/10 g. Amuc_1409 or PEP001, PEP002, PEP003, PEP004, or PEP005 was dissolved in PBS buffer at a concentration of 6.7 μM from 3 days before ConA administration, and PEP007, PEP008, PEP009, or PEP010 was dissolved in PBS buffer at a concentration of 0.2 μg/150 μL from 3 days before ConA administration, and Amuc_1409 was injected into the mouse peritoneal cavity once a day at the same time by 210 μL and PEP001 to PEP010 by 150 μL, and intraperitoneally injected additionally one time 30 minutes before ConA injection, and the experiment was terminated 9 hours after ConA intravenous injection. Into the control group, PBS buffer was intravenously injected in the same manner. At the end of the experiment 9 hours after ConA intravenous injection, blood was collected from the orbital venous plexus using a heparin-treated capillary tube, and the collected blood was immediately centrifuged at 10,000 rpm (4° C.) for 10 minutes to separate plasma and then subjected to the analysis of alanine aminotransferase (ALT) and aspartate aminotransferase (AST), which are indicators of liver damage, using an automatic blood biochemical analyzer (Beckman Coulter AU480 automatic analyzer, Beckman Coulter). The liver was harvested, a part of the liver was fixed in 10% NBF at room temperature for 24 hours or more and then embedded in paraffin to prepare a 5 μm-thick section, and the section was stained with hematoxylin and eosin (H&E).

[2] = tested on: C57BL/6 mice with telogen hair; test: Hair growth promotion on shaved dorsal skin; assay type: in vivo; details: vs vehicle
Method: In order to examine the hair growth promoting efficacy, 8-week-old C57BL/6 mice with telogen hair having pink dorsal skin were used. The mice were anesthetized, then the hair on the back of the mouse was removed using an electric hair clipper for animals. Amuc_1409 was dissolved in vehicle (50% ethanol, 20% propylene glycol, 30% water) at a concentration of 3.2 μM and then applied to the skin of the hair-removed site by 200 μL per animal using a pipette once a day for 21 days, and PEP006 to PEP013 were each dissolved in vehicle (50% ethanol, 20% propylene glycol, 30% water) at a concentration of 30 μM and then applied to the skin of the hair-removed site by 200 μL per animal using a pipette once a day for 28 days. For the control group, the same volume of vehicle (50% ethanol, 20% propylene glycol, 30% water) was applied to the skin.
Skin color and hair density were visually observed, scored according to the scoring criteria in Table 5, and graphed (Table 5).
After the experiment, the test animals were sacrificed, then the skin tissue of the mouse was fixed in 10% NBF at room temperature for 24 hours or more, and then embedded in paraffin to prepare a 5 μm-thick section, and the section was stained with (H&E) hematoxylin and eosin. The histological changes of the hair follicle tissue in the H&E-stained tissue sections were observed under an optical microscope. The number and depth of hair follicles and the thicknesses of dermis and subcutis were measured under an optical microscope, and the hair growth cycle was evaluated. The number of hair follicles was calculated by counting the number of hair follicles present in the subcutaneous tissue under a 100-magnification optical microscope. Changes in the depth of hair follicles and the thicknesses of dermis and subcutis were measured using the Image J program using a scale bar.

[3] = tested on: TPA-induced dermatitis model; test: TPA-induced dermatitis (ear) model; assay type: in vivo, C57BL/6J mice; details: vs PBS buffer group; for ear thickness / ear weight / erythema and swelling of the ear (macro photograph): 26 hours after TPA application
Method: As a dermatitis model, one day before sample application, both ears of 8-week-old male C57BL/6J mice were shaved, 2.5 μg of TPA (12-otetrade-canoyl-phorbol-13-acetate) dissolved in 25 μL acetone was applied to the right ear of the mouse to induce skin swelling and inflammation, and the left ear was coated with 25 μL of acetone, which is a TPA solvent, and used as a negative control. From 3 days before TPA application, Amuc_1409 or PEP001 to PEP013 were each dissolved in PBS buffer at a concentration of 6.7 μM, and then injected into the abdominal cavity of mice by 150 μL per animal once a day at the same time. On day 3 (0 days) after administration of the peptide, the peptide was injected intraperitoneally one time 30 minutes before TPA application, and the drug was additionally injected intraperitoneally 3 hours after TPA injection. Into the control group, the same volume of PBS buffer was intraperitoneally injected, and the experiment was terminated 26 hours after TPA application. 26 hours after TPA application, the ear thickness was measured and photographs of both ears for each test group were taken in order to examine the degree of swelling and inflammation relief in the ears. After the test animal was sacrificed, the weight per area of the ear was measured, the ears of mice were fixed in 10% neutral buffered formalin at room temperature for 24 hours or more, and then embedded in paraffin to prepare 5 μm-thick sections, and the sections were stained with hematoxylin and eosin (H&E). The degrees of swelling of the ear and inflammatory cell infiltration were examined by observing the H&E-stained tissue section under an optical microscope.

[4] = day 28 after application, 30 μM topical

Molecule	ALT [1]	AST [1]	proportion of the area where hair grew out to the total area (hair growth score) [2, 4]	ear thickness [3]	ear weight [3]	erythema and swelling of the ear (macro photograph) [3]	further results
RGAY (PEP007)	significantly decreased	tended to decrease	tended to increase				
AIS [PEP013]			tended to increase				
IGAY (PEP008)	tended to decrease		tended to increase				
AGAY (PEP006)			tended to increase				
SGAY (PEP009)	tended to decrease	tended to decrease	tended to increase				
AQS [PEP011]			tended to increase				
VGAY (PEP010)	significantly decreased	decreased close to a significant level					
AVSSIKGAY (PEP001)	decreased close to a significant level	decreased close to a significant level		significantly decreased	significantly decreased	significantly reduced	
AGS [PEP012]			tended to increase				
AVSSI (PEP002)	significantly decreased	tended to decrease		significantly decreased	significantly decreased	significantly reduced	
KGAY (PEP003)	significantly decreased	tended to decrease		significantly decreased	significantly decreased	significantly reduced	
AVS (AVSSIKGAY) [PEP004]	significantly decreased	tended to decrease		significantly decreased	significantly decreased	significantly reduced	
GAY [PEP005]	decreased close to a significant level	tended to decrease		significantly decreased	significantly decreased	significantly reduced	
B1	significantly decreased	significantly decreased		tended to decrease	significantly decreased	reduced overall	inflammatory cells infiltration into the liver and necrosis in the liver parenchyma (H&E) [1]: markedly reduced; ear tissue swelling and inflammatory cell infiltration (H&E) [3]: significantly reduced; depth of the hair follicle ([2]; H&E): significantly increased; number of hair follicles present in the subcutaneous fat layer ([2]; H&E): significantly increased; proportion of hair in the anagen phase ([2]; H&E): significantly increased; thickness of dermis ([2]; H&E): significantly increased; thickness of subcutis ([2]; H&E): significantly increased; proportion of the area where hair grew out to the total area (hair growth score) ([2]; day 21 after application, 3.2 μM topical): significantly increased
